Experimental data: PubChem BioAssay AID330 (DTP/NCI, 2004)
“And” between values parts separate entries of the source, which are not always exact repeats. Identical values can stand only once. Inconclusive results and toxic doses are left out. How the source made its calls: active means survival T/C of 150% or more; inactive means T/C below 125% in these data.

Test system: P388 leukemia ip, CD2F1 mice, survival T/C
Experiment: NCI In Vivo Anticancer Drug Screen. Data for tumor model P388 Leukemia (intraperitoneal) in CD2F1 (CDF1) mice
Conditions: endpoint: median survival time, higher = longer survival
In short: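 Mice carrying the transplanted tumor received test compound or vehicle. Survival was recorded in each group, and the value is the treated-group measurement divided by that of the vehicle-treated control group.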

[1] = dose: 50.0 mg/kg/injection, schedule: Q01DX005 (ip), vehicle: Klucel (hydroxypropylcellulose) (HPC)
[2] = dose: 100.0 mg/kg/injection, schedule: Q01DX005 (ip), vehicle: Klucel (hydroxypropylcellulose) (HPC)
[3] = dose: 60.0 mg/kg/injection, schedule: Q01DX005 (ip), vehicle: saline with Tween-80
[4] = dose: 120.0 mg/kg/injection, schedule: Q01DX005 (ip), vehicle: saline with Tween-80
[5] = dose: 240.0 mg/kg/injection, schedule: Q01DX005 (ip), vehicle: saline with Tween-80
[6] = dose: 50.0 mg/kg/injection, schedule: Q01DX009 (ip), vehicle: saline
[7] = dose: 12.5 mg/kg/injection, schedule: Q01DX005 (ip), vehicle: Klucel (hydroxypropylcellulose) (HPC)

Measured: T/C

CCN(CC)CCNc1ccc(C)c2sc3ccccc3c(=O)c12
active: dose: 54.0 mg/kg/injection, schedule: Q01DX005 (ip), vehicle: saline 152 % of control | dose: 62.5 mg/kg/injection, schedule: Q01DX005 (ip), vehicle: saline 181 % of control | dose: 75.0 mg/kg/injection, schedule: Q01DX005 (ip), vehicle: saline 156 % of control | dose: 75.0 mg/kg/injection, schedule: Q01DX005 (ip), vehicle: water 151 % of control | dose: 80.0 mg/kg/injection, schedule: Q01DX005 (ip), vehicle: water 156 % of control | dose: 90.0 mg/kg/injection, schedule: Q01DX005 (ip), vehicle: saline 154 % of control | dose: 125.0 mg/kg/injection, schedule: Q01DX005 (ip), vehicle: saline 166 % of control and 168 % of control | dose: 180.0 mg/kg/injection, schedule: Q04DX003 (ip), vehicle: saline 168 % of control
inactive: dose: 6.25 mg/kg/injection, schedule: Q01DX005 (ip), vehicle: distilled water + Tween-80 100 % of control and 106 % of control | dose: 6.25 mg/kg/injection, schedule: Q01DX009 (ip), vehicle: water 100 % of control | dose: 7.8 mg/kg/injection, schedule: Q01DX005 (ip), vehicle: saline 109 % of control | dose: 12.5 mg/kg/injection, schedule: Q01DX005 (ip), vehicle: distilled water + Tween-80 101 % of control and 104 % of control and 107 % of control | dose: 12.5 mg/kg/injection, schedule: Q01DX009 (ip), vehicle: water 99 % of control | dose: 13.0 mg/kg/injection, schedule: Q01DX005 (ip), vehicle: water 120 % of control | dose: 15.6 mg/kg/injection, schedule: Q01DX005 (ip), vehicle: saline 113 % of control | dose: 16.2 mg/kg/injection, schedule: Q01DX005 (ip), vehicle: saline 107 % of control and 108 % of control | dose: 16.2 mg/kg/injection, schedule: Q01DX005 (ip), vehicle: water 107 % of control | dose: 19.4 mg/kg/injection, schedule: Q01DX005 (ip), vehicle: saline 102 % of control | dose: 19.4 mg/kg/injection, schedule: Q01DX005 (ip), vehicle: water 109 % of control | dose: 19.44 mg/kg/injection, schedule: Q01DX005 (ip), vehicle: saline 114 % of control | dose: 21.6 mg/kg/injection, schedule: Q01DX005 (ip), vehicle: water 117 % of control | dose: 25.0 mg/kg/injection, schedule: Q01DX005 (ip), vehicle: saline with Tween-80 114 % of control | dose: 25.0 mg/kg/injection, schedule: Q01DX009 (ip), vehicle: water 100 % of control | dose: 27.0 mg/kg/injection, schedule: Q01DX005 (ip), vehicle: saline 114 % of control | dose: 27.0 mg/kg/injection, schedule: Q01DX005 (ip), vehicle: water 118 % of control | dose: 32.4 mg/kg/injection, schedule: Q01DX005 (ip), vehicle: saline 111 % of control | dose: 32.4 mg/kg/injection, schedule: Q01DX005 (ip), vehicle: water 119 % of control | dose: 38.9 mg/kg/injection, schedule: Q04DX003 (ip), vehicle: saline 119 % of control | dose: 45.0 mg/kg/injection, schedule: Q01DX005 (ip), vehicle: saline 124 % of control | dose: 50.0 mg/kg/injection, schedule: Q01DX009 (ip), vehicle: water 115 % of control | dose: 54.0 mg/kg/injection, schedule: Q01DX005 (ip), vehicle: water 123 % of control

COc1cc(C(=O)CO)cc(OC)c1OC(C)=O
inactive: dose: 100.0 mg/kg/injection, schedule: Q04DX003 (ip), vehicle: saline with Tween-80 104 % of control and 105 % of control | dose: 200.0 mg/kg/injection, schedule: Q04DX003 (ip), vehicle: saline with Tween-80 116 % of control

CCCCNc1ncc(S(=O)(=O)Cc2ccc3c(c2)OCO3)c(N)n1
inactive: dose: 100.0 mg/kg/injection, schedule: Q04DX002 (ip), vehicle: saline 94 % of control | dose: 200.0 mg/kg/injection, schedule: Q04DX002 (ip), vehicle: saline 100 % of control | dose: 400.0 mg/kg/injection, schedule: Q04DX002 (ip), vehicle: saline 90 % of control

Cn1c(=O)c2c(=O)n3ccccc3nc2n(C)c1=O
inactive: [1] 104 % of control | [2] 96 % of control

Cc1c(C(N)=O)c(NC=O)n(-c2ccccc2)c1C
inactive: [3] 100 % of control | [4] 99 % of control | [5] 93 % of control

CCOC(=O)NC12c3ccccc3C(c3ccccc31)C(C(=O)O)C2C(=O)O (stereo unspecified)
inactive: dose: 100.0 mg/kg/injection, schedule: Q01DX009 (ip), vehicle: saline with Tween-80 118 % of control | dose: 200.0 mg/kg/injection, schedule: Q01DX009 (ip), vehicle: saline with Tween-80 118 % of control | dose: 400.0 mg/kg/injection, schedule: Q01DX009 (ip), vehicle: saline with Tween-80 118 % of control

S=C(S)N1CCCC1
inactive: [6] 100 % of control | dose: 100.0 mg/kg/injection, schedule: Q01DX009 (ip), vehicle: saline 93 % of control

Nc1ncnc2c1ccn2COCCO
inactive: dose: 50.0 mg/kg/injection, schedule: Q01DX005 (ip), vehicle: distilled water + alcohol 100 % of control | dose: 100.0 mg/kg/injection, schedule: Q01DX005 (ip), vehicle: distilled water + alcohol 101 % of control | dose: 200.0 mg/kg/injection, schedule: Q01DX005 (ip), vehicle: distilled water + alcohol 99 % of control

C=C1C(=O)OC2C(OC(C)=O)C1C(OC(=O)C(C)CC)[C@]1(C)C(=O)C=C[C@H]1[C@@H]2C (stereo partly specified)
inactive: dose: 0.78 mg/kg/injection, schedule: Q01DX005 (ip), vehicle: Klucel (hydroxypropylcellulose) (HPC) 97 % of control | dose: 1.56 mg/kg/injection, schedule: Q01DX005 (ip), vehicle: Klucel (hydroxypropylcellulose) (HPC) 101 % of control and 113 % of control | dose: 3.12 mg/kg/injection, schedule: Q01DX005 (ip), vehicle: Klucel (hydroxypropylcellulose) (HPC) 111 % of control | dose: 6.25 mg/kg/injection, schedule: Q01DX005 (ip), vehicle: Klucel (hydroxypropylcellulose) (HPC) 116 % of control and 122 % of control | [7] 99 % of control and 102 % of control

CSc1ccccc1[As](c1ccccc1)c1ccccc1SC
inactive: dose: 50.0 mg/kg/injection, schedule: Q01DX009 (ip), vehicle: Klucel (hydroxypropylcellulose) (HPC) 90 % of control | dose: 100.0 mg/kg/injection, schedule: Q01DX009 (ip), vehicle: Klucel (hydroxypropylcellulose) (HPC) 92 % of control | dose: 200.0 mg/kg/injection, schedule: Q01DX009 (ip), vehicle: Klucel (hydroxypropylcellulose) (HPC) 95 % of control

Cc1nc(N)nc(N)c1N1CCN(c2ccc(C(=O)NC(C(=O)O)C(=O)O)cc2)CC1
inactive: dose: 15.0 mg/kg/injection, schedule: Q01DX005 (ip), vehicle: Klucel + Tween-80 87 % of control
active: dose: 3.75 mg/kg/injection, schedule: Q01DX005 (ip), vehicle: Klucel + Tween-80 184 % of control | dose: 7.5 mg/kg/injection, schedule: Q01DX005 (ip), vehicle: Klucel + Tween-80 215 % of control

Cc1cc(Oc2ccc(Cl)cc2NC(=O)Nc2cccc(C(F)(F)F)c2)cc(S(=O)(=O)O)c1Cl
inactive: dose: 100.0 mg/kg/injection, schedule: Q01DX001 (ip), vehicle: saline with Tween-80 100 % of control

COC(=O)C1=C/CCCN(C=O)/C=C\1C(=O)OC
inactive: dose: 100.0 mg/kg/injection, schedule: Q04DX003 (ip), vehicle: alcohol 103 % of control | dose: 200.0 mg/kg/injection, schedule: Q04DX003 (ip), vehicle: alcohol 103 % of control | dose: 400.0 mg/kg/injection, schedule: Q04DX003 (ip), vehicle: alcohol 103 % of control

Cc1noc2c1NC(=O)OC(C)(C)C2
inactive: [7] 102 % of control | dose: 25.0 mg/kg/injection, schedule: Q01DX005 (ip), vehicle: Klucel (hydroxypropylcellulose) (HPC) 105 % of control | [1] 100 % of control | [2] 104 % of control | dose: 200.0 mg/kg/injection, schedule: Q01DX005 (ip), vehicle: Klucel (hydroxypropylcellulose) (HPC) 101 % of control

CCC1CN2CCc3cc(OC)c(OC)cc3C2CC1Cl (stereo unspecified)
inactive: dose: 12.5 mg/kg/injection, schedule: Q01DX009 (ip), vehicle: saline 90 % of control | dose: 25.0 mg/kg/injection, schedule: Q01DX009 (ip), vehicle: saline 90 % of control | dose: 50.0 mg/kg/injection, schedule: Q01DX009 (ip), vehicle: saline with Tween-80 101 % of control | [6] 96 % of control

CCOC(=O)c1ccc(N2C(=O)C(Cl)(c3ccccc3)C2c2ccco2)cc1 (stereo unspecified)
inactive: [3] 100 % of control | [4] 95 % of control | [5] 94 % of control
